Four molecules from ChEMBL document CHEMBL4371021, “BH3 mimetics derived from Bim-BH3 domain core region show PTP1B inhibitory activity” (Bioorg Med Chem Lett, 2019) can be followed below.

A word on the inhibition: it is the percentage by which the read-out fell short of the control. The Kd is the equilibrium constant for the complex coming apart.

The source made the active and inactive calls. No cut-off for these calls is given here. Residues, ends and D or L forms follow the SMILES beside them.

Assay [1] concerns HepG2. As to the kind of experiment: Induction of insulin-stimulated 2-NBDG uptake in palmitic acid-induced insulin resistant human HepG2 cells at 1 umol/L preincubated for 24 hrs followed by insulin stimulation and measured after 30 mins by fluorescence assay. It is filed as functional, cell-based.
For assay [2], the target named is T1, Tyrosine-protein phosphatase non-receptor type 1 (Homo sapiens) (UniProt P18031).
T1 sequence (whole entry): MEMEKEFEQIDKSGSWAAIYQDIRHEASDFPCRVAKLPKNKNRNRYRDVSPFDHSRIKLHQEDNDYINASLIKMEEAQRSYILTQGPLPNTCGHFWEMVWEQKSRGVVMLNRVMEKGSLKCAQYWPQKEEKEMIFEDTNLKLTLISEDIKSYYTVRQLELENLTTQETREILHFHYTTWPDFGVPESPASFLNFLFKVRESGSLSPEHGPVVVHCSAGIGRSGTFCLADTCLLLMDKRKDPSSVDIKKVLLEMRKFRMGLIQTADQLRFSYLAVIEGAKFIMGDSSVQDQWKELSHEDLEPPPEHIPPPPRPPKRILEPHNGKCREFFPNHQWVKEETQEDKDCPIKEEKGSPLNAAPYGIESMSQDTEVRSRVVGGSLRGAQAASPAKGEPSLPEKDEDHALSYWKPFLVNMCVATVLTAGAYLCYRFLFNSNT
As to the kind of experiment: (§1) Inhibition of recombinant human N-terminal poly histidine-tagged PTP1B (Glu2 to Asn321 residues) expressed in Escherichia coli at 40 umol/L using pNPP as substrate measured for 4 mins relative to control.

The target in assay [3] is Tyrosine-protein phosphatase non-receptor type 1 (Homo sapiens) (UniProt P18031). The description is as §1. This is another data set of the same source.
In assay [4] the target is T1, Tyrosine-protein phosphatase non-receptor type 1 (Homo sapiens). As to the kind of experiment: Binding affinity to recombinant human N-terminal poly histidine-tagged PTP1B (Glu2 to Asn321 residues) expressed in Escherichia coli assessed as dissociation rate constant by surface plasmon resonance analysis. (In general: Surface plasmon resonance follows binding to a sensor surface in real time, without labels.)

Assay [5] has as its target T2, Tyrosine-protein phosphatase non-receptor type 1 (Homo sapiens, UniProt P18031).
T2 sequence (P18031 whole entry): T1 sequence (whole entry)
As to the kind of experiment: Binding affinity to recombinant human N-terminal poly histidine-tagged PTP1B (Glu2 to Asn321 residues) expressed in Escherichia coli by surface plasmon resonance analysis.

In assay [6] the target is T1, Tyrosine-protein phosphatase non-receptor type 1 (Homo sapiens). The experiment in a line: Binding affinity to recombinant human N-terminal poly histidine-tagged PTP1B (Glu2 to Asn321 residues) expressed in Escherichia coli assessed as association rate constant by surface plasmon resonance analysis.

As for `CN(CCOc1ccc(CC2SC(=O)NC2=O)cc1)c1ccccn1` (configuration not stated), the result in assay [1] was Active. Take `CC[C@H](C)[C@H](NC(=O)COCCOCCOCCOCCOC)C(=O)N[C@@H](C)C(=O)N[C@@H](CCC(N)=O)C(=O)N[C@@H](CCC(=O)O)C(=O)N[C@@H](CC(C)C)C(=O)N[C@@H](CCCNC(=N)N)C(=O)N[C@@H](CCCNC(=N)N)C(=O)N[C@H](C(=O)NCC(=O)N[C@@H](CC(=O)O)C(=O)N[C@@H](CCC(=O)O)C(=O)N[C@@H](Cc1ccccc1)C(N)=O)[C@@H](C)CC` (HELM PEPTIDE1{[COCCOCCOCCOCCOCC(=O)[*:2]].I.A.Q.E.L.R.R.I.G.D.E.F.[am]}$$$$V2.0): the inhibition in assay [2] was 4.25%.

For the molecule SODIUM ORTHOVANAD, the inhibition in assay [3] is 75.4%. Regarding Ac-IWIAQELRRIGDEF-NH2, the Kdiss in assay [4] worked out at 1.26 ×10⁻³ /s. The Kd in assay [5] amounted to 128 nM. The inhibition in assay [2] is 5%. For the same molecule, the Ka in assay [6] was 9880 M⁻¹ s⁻¹.
